pKi: −log10 of the molar value. Counter-ions that a name gives are not always drawn.
Tested on: not given
Experiment: not given
Conditions: not given

Row | Molecule | melting point
1 | O=S(=O)(c1ccc(F)cc1)n1ncc2c(OCCN3CCCCC3)cccc21 (as salt: hydrochloride) [Example 16, 1-[(4-fluorophenyl)sulfonyl]-4-[2-(1-piperidinyl)ethoxy]-1H-indazole] | 122 °C (dec.)
2 | O=[N+]([O-])c1ccc(S(=O)(=O)n2ncc3c(OCCN4CCCCC4)cccc32)cc1 (as salt: hydrochloride) [Example 15, 1-[(4-nitrophenyl)sulfonyl]-4-[2-(1-piperidinyl)ethoxy]-1H-indazole] | 117 to 119 °C

Target: T1, human cloned 5-HT6 receptors (Homo sapiens, UniProt P50406)
T1 construct: expressed in transfected cells; host or cells: HeLa cells
T1 sequence (P50406 whole entry): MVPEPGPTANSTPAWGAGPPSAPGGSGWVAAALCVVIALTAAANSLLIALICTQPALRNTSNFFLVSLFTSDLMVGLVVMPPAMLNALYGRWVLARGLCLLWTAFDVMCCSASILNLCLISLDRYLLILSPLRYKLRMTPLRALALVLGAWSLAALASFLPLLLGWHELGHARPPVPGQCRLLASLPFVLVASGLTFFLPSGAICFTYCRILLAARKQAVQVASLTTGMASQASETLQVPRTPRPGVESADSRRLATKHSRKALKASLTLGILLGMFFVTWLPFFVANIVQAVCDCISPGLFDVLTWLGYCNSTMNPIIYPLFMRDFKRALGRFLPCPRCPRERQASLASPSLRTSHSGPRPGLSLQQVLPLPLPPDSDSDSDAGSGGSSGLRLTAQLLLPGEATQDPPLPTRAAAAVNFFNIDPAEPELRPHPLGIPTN
Experiment: 5-HT6 binding affinity, [3H]-LSD displacement from membranes of Hela cells expressing human cloned 5-HT6 receptors
Conditions: 1 μM test compound; [3H]-LSD 3.0 nM
Method: The affinity of test compounds for the serotonin 5-HT6 receptor is evaluated in the following manner. Cultured Hela cells expressing human cloned 5-HT6 receptors are harvested and centrifuged at low speed (1,000×g) for 10.0 min to remove the culture media. The harvested cells are suspended in half volume of fresh physiological phosphate buffered saline solution and recentrifuged at the same speed. This operation is repeated. The collected cells are then homogenized in ten volumes of 50 mM Tris.HCl (pH 7.4) and 0.5 mM EDTA. The homogenate is centrifuged at 40,000×g for 30.0 min and the precipitate is collected. The obtained pellet is resuspended in 10 volumes of Tris.HCl buffer and recentrifuged at the same speed. The final pellet is suspended in a small volume of Tris.HCl buffer and the tissue protein content is determined in aliquots of 10-25 μl volumes. Bovine Serum Albumin is used as the standard in the protein determination according to the method described in Lowry et al., J. Biol. Chem., 193:265 (1951). The volume of the suspended cell membranes is adjusted to give a tissue protein concentration of 1.0 mg/ml of suspension. The prepared membrane suspension (10 times concentrated) is aliquoted in 1.0 ml volumes and stored at −70° C. until used in subsequent binding experiments.
Binding experiments are performed in a 96 well microtiter plate format, in a total volume of 200 μl. […] The test compounds are added in 20.0 μl volume.
The reaction is allowed to proceed in the dark for 120 min at room temperature, at which time, the bound ligand-receptor complex is filtered off on a 96 well unifilter with a Packard Filtermate® 196 Harvester. The bound complex caught on the filter disk is allowed to air dry and the radioactivity is measured in a Packard TopCount® equipped with six photomultiplier detectors, after the addition of 40.0 μl Microscint®-20 scintillant to each shallow well. The unifilter plate is heat-sealed and counted in a PackardTopCount® with a tritium efficiency of 31.0%.
Binding in the presence of varying concentrations of test compound is expressed as a percentage of specific binding in the absence of test compound. The results are plotted as log % bound versus log concentration of test compound. […] A linear regression line of data points is plotted, from which the IC50 value is determined and the Ki value is determined based upon the following equation: Ki=IC50/(1+L/KD) where L is the concentration of the radioactive ligand used and KD is the dissociation constant of the ligand for the receptor, both expressed in nM.

Row | Molecule | % inhibition at 1 μM concentration (5-HT6 binding)
3 | N-(3-methoxybenzyl)-N-(2-{[1-(phenylsulfonyl)-1H-indol-4-yl]oxy}ethylamineH hydrochloride [Example 7b] | 95% @ 1 μM*
4 | N,N-Bis(3-methoxybenzyl)-N-(2-{[1-(phenylsulfonyl)-1H-indol-4-yl]oxy}ethylamine [Example 7a] | 94% @ 1 μM*

Same assay, conditions: 1 μM test compound; [3H]-LSD 3.0 nM; read-out: % inhibition at 1 μM concentration (5-HT6 binding)

Row | Molecule | inhibition at 1 µM
5 | O=[N+]([O-])c1ccc(S(=O)(=O)n2ncc3c(OCCN4CCCCC4)cccc32)cc1 [Example 15, 1-[(4-nitrophenyl)sulfonyl]-4-[2-(1-piperidinyl)ethoxy]-1H-indazole] | 76%
6 | O=S(=O)(c1ccccc1)n1ccc2c(OCCN3CCOCC3)cccc21 [Example 9, 4-(2-Morpholin-4-ylethoxy)-1-(phenylsulfonyl)-1H-indole Hydrochloride] | 92%

Same assay, conditions: [3H]-LSD 3.0 nM, Hela cell membranes, 120 min at room temperature

Row | Molecule | pKi
7 | NCCOc1cccc2c1ccn2S(=O)(=O)c1ccccc1 [Example 5, 2-{[1-(Phenylsulfonyl)-1H-indole-4-yl]oxy}ethylamine Hydrochloride] | 8.70
8 | NCCOc1cccc2c1cnn2S(=O)(=O)c1ccccc1 [Example 14, 2-{[1-Phenylsulfonyl)-1H-indazol-4-yl]oxy}ethylamine Hydrochloride] | 9.00
9 | O=S(=O)(c1ccccc1)n1ccc2c(OCCNC3CCOCC3)cccc21 [Example 6, N-(2-{[1-(Phenylsulfonyl)-1H-indol-4-yl]oxy}ethyl)tetrahydro-2H-pyran-4-amine Hydrochloride] | 8.22
10 | O=S(=O)(c1ccccc1)n1ccc2c(OCCN3CCCCC3)cccc21 [Example 10, 1-(Phenylsulfonyl)-4-(2-piperidin-1-ylethoxy)-1H-indole Hydrochloride] | 8.15
11 | Nc1ccc(S(=O)(=O)n2ncc3c(OCCN4CCCCC4)cccc32)cc1 [Example 19, 4-({4-[2-(1-Piperidinyl)ethoxy]-1H-indazol-1-yl}sulfonyl)aniline] | 9.00
12 | O=S(=O)(c1ccccc1)n1ncc2c(OCCNC3CCOCC3)cccc21 [Example 17] | 8.22
13 | O=S(=O)(c1ccccc1)n1ncc2c(OCCNC3CCSCC3)cccc21 [Example 18, N-(2-{[1-Phenylsulfonyl)-1H-indazol-4-yl]oxy}ethyl)tetrahydro-2H-thiopyran-4-amine Hydrochloride] | 7.96
14 | CN(C)CCOc1cccc2c1ccn2S(=O)(=O)c1ccccc1 [Example 8, N,N-Dimethyl-N-(2-{[1-phenylsulfonyl)-1H-indol-4-yl]oxy}ethylamine Hydrochloride] | 8.40
15 | O=S(=O)(c1ccc(F)cc1)n1ncc2c(OCCN3CCCCC3)cccc21 [Example 16, 1-[(4-fluorophenyl)sulfonyl]-4-[2-(1-piperidinyl)ethoxy]-1H-indazole] | 7.72
16 | O=S(=O)(c1ccccc1)n1ncc2c(OCCN3CCCCC3)cccc21 [Example 13, 1-Phenylsulfonyl)-4-[1-piperidinyl)ethoxy]-1H-indazole Hydrochloride] | 8.70
